Experimental data reported in PMC7390954 (Frontiers in Microbiology, 2020).
Converted amounts (≈) assume the structure as drawn. Peptide text beside a SMILES is read from it.

Columns and labels:
[1] = system: P. aeruginosa UCBPP-PA14 wild-type; type: cell-based, Pseudomonas aeruginosa; settings: standard twofold dilution MIC in 96-well plates
[2] = system: P. aeruginosa UCBPP-PA14 wild-type and tssK-2 mutant (1:1); type: cell-based, Pseudomonas aeruginosa
[3] = system: Pseudomonas aeruginosa UCBPP-PA14 wild-type
[4] = system: P. aeruginosa; settings: cited from earlier work

CC(C)CCCCC(=O)N[C@@H](CCN)C(=O)N[C@H](C(=O)N[C@@H](CCN)C(=O)N[C@H]1CCNC(=O)[C@H]([C@@H](C)O)NC(=O)[C@H](CCN)NC(=O)[C@H](CCN)NC(=O)[C@H](CC(C)C)NC(=O)[C@@H](Cc2ccccc2)NC(=O)[C@H](CCN)NC1=O)[C@@H](C)O [PMB, polymyxin B2] (HELM PEPTIDE1{[CC(C)CCCCC(=O)[*:2]].[Dab].T.[Dab].[Dab].[Dab].[dF].L.[Dab].[Dab].T}$PEPTIDE1,PEPTIDE1,5:R3-11:R2$$$V2.0)
MIC, Without Spermidine [1]: 50 | MIC, With 4 mM Spermidine ([1]; 4 mM spermidine): >100 | fate of tssK-2 mutant in 1:1 mixture with wild-type [2]: out-competed | MIC, BM2 (H) ([3]; BM2 with high (2 mM) Mg2+, MIC = no growth after 10 h): 0.3 µg/mL (≈ 0.252 µM) | MIC, BM2 (L) ([3]; BM2 with low (20 μM) Mg2+, 0.002% tween 80, 0.2% rhamnose, MIC = no growth after 10 h): 32 µg/mL (≈ 26.9 µM) | Sub-MIC (L) ([3]; BM2 with low (20 μM) Mg2+, concentration that slowed down growth by 30% compared to untreated control): 2 µg/mL

murepavadin
MIC90 [4]: 2 µg/mL
